The values below are quoted from earlier work in article PMC11659887 (ACS Bio & Med Chem Au, 2024).

The test system of this series is SARS-CoV-2 M^pro E166Q.

`CC(C)(C)[C@H](NC(=O)C(F)(F)F)C(=O)N1C[C@H]2[C@@H]([C@H]1C(=O)N[C@H](C#N)C[C@@H]1CCNC1=O)C2(C)C` [nirmatrelvir, Nirmatrelvir]: the resistance to nirmatrelvir entry was “no significant resistance”.
